Results taken from ChEMBL document CHEMBL1201862, “PubChem BioAssay data set” (2004).
Activity calls are given as the source filed them.

Key:
Protein Tat = target: T1, Protein Tat (Human immunodeficiency virus type 1 group M subtype B (isolate HXB2)(HIV-1), UniProt P04608); assay type: functional;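 note: tat binding to TAR RNA read out by fluorescence polarization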
T1 sequence (P04608 whole entry): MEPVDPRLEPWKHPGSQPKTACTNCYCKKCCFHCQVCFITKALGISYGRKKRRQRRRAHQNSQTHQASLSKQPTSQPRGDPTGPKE

[1] = HIV-1 Vif–A3G interaction blockers – biochemical, TR-FRET, GST-Vif 1-94, biotin-A3G peptide, dose response retest, primary screen (AID 1117319); assay type: functional;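 note: TR-FRET signal of purified GST-Vif binding a biotinylated A3G peptide; inhibitors lower the FRET signal by blocking Vif and A3G binding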
[2] = target: DNA dC->dU-editing enzyme APOBEC-3G (Homo sapiens, UniProt Q9HC16); assay type: functional;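 note: Dose-response counterscreen measuring inhibition of APOBEC3G DNA deaminase activity, run while confirming APOBEC3A inhibitors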
Chain of DNA dC->dU-editing enzyme APOBEC-3G (Q9HC16 whole entry, the tested form may be a part): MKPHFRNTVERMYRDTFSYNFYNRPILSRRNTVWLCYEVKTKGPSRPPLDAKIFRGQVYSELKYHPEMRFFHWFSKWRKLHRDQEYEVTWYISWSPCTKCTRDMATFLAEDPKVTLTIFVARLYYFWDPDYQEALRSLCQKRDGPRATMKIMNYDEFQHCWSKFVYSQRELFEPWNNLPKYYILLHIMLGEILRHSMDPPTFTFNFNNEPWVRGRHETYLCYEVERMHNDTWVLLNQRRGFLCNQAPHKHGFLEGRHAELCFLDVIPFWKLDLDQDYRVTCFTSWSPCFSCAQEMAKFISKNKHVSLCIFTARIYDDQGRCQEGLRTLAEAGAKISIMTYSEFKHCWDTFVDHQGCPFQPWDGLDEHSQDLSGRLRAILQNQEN

[3] = target: T2, Carboxy-terminal domain RNA polymerase II polypeptide A small phosphatase 1 (Homo sapiens, UniProt Q9GZU7); test: CTDSP1 inhibitors, concentration-response, biochemical, absorbance readout, ultra-high-throughput screen actives (AID 540297); assay type: functional
T2 sequence (Q9GZU7 whole entry): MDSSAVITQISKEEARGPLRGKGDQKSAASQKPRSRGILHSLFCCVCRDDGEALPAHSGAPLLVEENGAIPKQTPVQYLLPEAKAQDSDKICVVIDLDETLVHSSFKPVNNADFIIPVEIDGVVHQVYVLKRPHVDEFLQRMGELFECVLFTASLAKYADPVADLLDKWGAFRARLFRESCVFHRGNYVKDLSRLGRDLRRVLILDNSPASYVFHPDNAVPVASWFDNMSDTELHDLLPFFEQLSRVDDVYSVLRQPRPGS

[4] = target: DNA dC->dU-editing enzyme APOBEC-3A (Homo sapiens, UniProt P31941); test: Dose Response confirmation of small molecule APOBEC3A DNA Deaminase Inhibitors via a fluorescence-based single-stranded DNA deaminase assay. [Related pubchem assays (depositor defined):AID493011, AID493024]; assay type: functional
Chain of DNA dC->dU-editing enzyme APOBEC-3A (P31941 whole entry): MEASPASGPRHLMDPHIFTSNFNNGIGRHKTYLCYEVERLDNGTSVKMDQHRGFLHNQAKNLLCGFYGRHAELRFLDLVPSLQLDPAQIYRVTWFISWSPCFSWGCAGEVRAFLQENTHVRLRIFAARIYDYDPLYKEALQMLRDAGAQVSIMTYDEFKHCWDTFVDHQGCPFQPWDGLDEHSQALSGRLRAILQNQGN

Large T antigen = Large T antigen (Simian virus 40, UniProt P03070); assay type: functional, Betapolyomavirus macacae;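 note: Confirmatory-stage PubChem screen for compounds that inhibit SV40 T antigen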
Chain of Large T antigen (P03070 whole entry, the tested form may be a part): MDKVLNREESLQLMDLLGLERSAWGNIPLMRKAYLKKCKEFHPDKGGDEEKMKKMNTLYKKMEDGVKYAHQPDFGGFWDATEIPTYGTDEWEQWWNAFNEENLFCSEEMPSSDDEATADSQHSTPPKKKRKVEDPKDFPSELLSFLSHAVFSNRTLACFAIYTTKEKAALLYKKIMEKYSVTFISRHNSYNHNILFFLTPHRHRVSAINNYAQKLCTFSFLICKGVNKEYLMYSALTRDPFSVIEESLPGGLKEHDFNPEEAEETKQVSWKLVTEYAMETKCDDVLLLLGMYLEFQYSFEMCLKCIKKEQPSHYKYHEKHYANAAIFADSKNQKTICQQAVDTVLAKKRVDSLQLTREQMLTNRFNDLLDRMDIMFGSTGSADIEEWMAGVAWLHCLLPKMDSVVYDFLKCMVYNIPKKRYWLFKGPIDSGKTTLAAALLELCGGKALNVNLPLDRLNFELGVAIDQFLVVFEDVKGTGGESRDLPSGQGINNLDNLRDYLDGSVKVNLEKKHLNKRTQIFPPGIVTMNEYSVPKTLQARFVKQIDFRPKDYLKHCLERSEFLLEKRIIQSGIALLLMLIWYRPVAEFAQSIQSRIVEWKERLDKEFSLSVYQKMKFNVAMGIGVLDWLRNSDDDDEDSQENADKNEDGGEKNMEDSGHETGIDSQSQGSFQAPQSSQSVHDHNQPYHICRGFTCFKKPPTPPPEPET

[5] = target: T3, RNA-binding protein pos-1 (Caenorhabditis elegans, UniProt G5EF15); test: disruptors of C. elegans POS-1 RNA interaction – biochemical, fluorescence polarization, dose response (AID 1964);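 note: purified POS-1 fused to maltose binding protein made in E. coli; potency of compounds blocking POS-1 binding to fluorescent RNA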
T3 sequence (G5EF15 whole entry): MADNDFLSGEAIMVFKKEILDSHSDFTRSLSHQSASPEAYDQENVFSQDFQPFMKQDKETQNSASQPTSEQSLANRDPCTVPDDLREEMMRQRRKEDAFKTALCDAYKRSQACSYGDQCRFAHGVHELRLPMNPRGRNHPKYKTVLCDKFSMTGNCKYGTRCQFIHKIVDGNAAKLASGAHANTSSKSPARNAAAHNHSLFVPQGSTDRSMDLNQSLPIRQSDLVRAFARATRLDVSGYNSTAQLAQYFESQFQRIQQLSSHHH

[6] = target: T4, Zinc finger protein mex-5 (Caenorhabditis elegans, UniProt Q9XUB2); test: potency of MEX-5 RNA-binding blockers – biochemical, C. elegans, fluorescence polarization, dose response (AID 1960)
T4 sequence (Q9XUB2 whole entry): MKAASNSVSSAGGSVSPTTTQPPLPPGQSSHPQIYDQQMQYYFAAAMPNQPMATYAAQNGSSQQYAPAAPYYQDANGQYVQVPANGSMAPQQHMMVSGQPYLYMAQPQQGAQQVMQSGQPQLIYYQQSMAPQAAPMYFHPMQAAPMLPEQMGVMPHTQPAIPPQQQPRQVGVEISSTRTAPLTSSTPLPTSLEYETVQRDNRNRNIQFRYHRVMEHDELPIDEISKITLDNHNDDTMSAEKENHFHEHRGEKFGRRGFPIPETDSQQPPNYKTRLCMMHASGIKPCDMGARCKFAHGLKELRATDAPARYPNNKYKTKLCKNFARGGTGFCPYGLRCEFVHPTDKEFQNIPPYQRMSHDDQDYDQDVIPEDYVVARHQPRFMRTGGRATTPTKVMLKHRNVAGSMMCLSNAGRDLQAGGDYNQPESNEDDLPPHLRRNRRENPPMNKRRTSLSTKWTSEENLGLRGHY

[7] = target: T5, Corticotropin-releasing factor receptor 2/Corticotropin-releasing factor-binding protein (Homo sapiens, UniProt P24387+Q13324); test: activators of CRF receptor 2 with binding protein – uHTS hits, confirmation (AID 602473); assay type: functional; settings: read-out: EC50_Mean
T5 sequence (Q13324 whole entry): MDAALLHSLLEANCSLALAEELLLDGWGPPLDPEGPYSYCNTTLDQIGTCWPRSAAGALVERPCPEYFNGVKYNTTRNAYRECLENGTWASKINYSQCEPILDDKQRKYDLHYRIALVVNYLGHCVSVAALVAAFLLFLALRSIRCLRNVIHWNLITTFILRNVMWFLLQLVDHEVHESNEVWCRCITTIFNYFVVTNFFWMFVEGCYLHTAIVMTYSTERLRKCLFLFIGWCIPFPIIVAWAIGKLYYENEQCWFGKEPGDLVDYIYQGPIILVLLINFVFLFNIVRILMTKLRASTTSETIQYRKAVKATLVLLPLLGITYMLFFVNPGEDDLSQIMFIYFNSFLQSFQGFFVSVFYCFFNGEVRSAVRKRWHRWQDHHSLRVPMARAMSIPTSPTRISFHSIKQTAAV
T5 sequence (P24387 whole entry): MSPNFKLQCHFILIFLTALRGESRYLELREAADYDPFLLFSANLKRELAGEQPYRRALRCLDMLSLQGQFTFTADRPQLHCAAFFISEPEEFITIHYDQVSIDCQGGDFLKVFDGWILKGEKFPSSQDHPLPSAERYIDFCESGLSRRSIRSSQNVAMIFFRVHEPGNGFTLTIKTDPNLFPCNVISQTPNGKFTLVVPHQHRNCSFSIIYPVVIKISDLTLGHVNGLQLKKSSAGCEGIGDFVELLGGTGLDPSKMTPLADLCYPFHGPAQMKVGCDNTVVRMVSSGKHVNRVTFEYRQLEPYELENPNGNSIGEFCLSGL

[8] = blockers of CRF-binding protein–CRF-R2 complex – cell-based, uHTS hits, 384-well, dose response (AID 651639); assay type: functional, Homo sapiens; settings: read-out: IC50_Mean
[9] = target: T5, Corticotropin-releasing factor receptor 2/Corticotropin-releasing factor-binding protein; test: Dose Response confirmation of uHTS hits for small molecule antagonists of the CRF-binding protein and CRF-R2 receptor complex.; assay type: functional; settings: read-out: IC50_Mean
[10] = NIH-3T3 fibroblast cytotoxicity, dose response, cytotoxicity control, cell-based, fluorescence, Alamar Blue, secondary assay (AID 2327); assay type: functional;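 note: NIH-3T3 mouse fibroblasts cultured with fluconazole at 8 µg/mL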
[11] = Counterscreen for activators of the function of SWI/SNF related, matrix associated, actin dependent regulator of chromatin, subfamily a, member 2 (SMARCA2, BRM): Luminescence-based cell-based high throughput dose response assay to identify non-selective compounds using the VP16 reporter assay.; assay type: functional
[12] = target: SWI/SNF-related matrix-associated actin-dependent regulator of chromatin subfamily A member 2 (Homo sapiens, UniProt P51531); test: Luminescence-based cell-based high throughput dose response assay to identify activators of the function of SWI/SNF related, matrix associated, actin dependent regulator of chromatin, subfamily a, member 2 (SMARCA2, BRM).; assay type: functional
Chain of SWI/SNF-related matrix-associated actin-dependent regulator of chromatin subfamily A member 2 (P51531 whole entry): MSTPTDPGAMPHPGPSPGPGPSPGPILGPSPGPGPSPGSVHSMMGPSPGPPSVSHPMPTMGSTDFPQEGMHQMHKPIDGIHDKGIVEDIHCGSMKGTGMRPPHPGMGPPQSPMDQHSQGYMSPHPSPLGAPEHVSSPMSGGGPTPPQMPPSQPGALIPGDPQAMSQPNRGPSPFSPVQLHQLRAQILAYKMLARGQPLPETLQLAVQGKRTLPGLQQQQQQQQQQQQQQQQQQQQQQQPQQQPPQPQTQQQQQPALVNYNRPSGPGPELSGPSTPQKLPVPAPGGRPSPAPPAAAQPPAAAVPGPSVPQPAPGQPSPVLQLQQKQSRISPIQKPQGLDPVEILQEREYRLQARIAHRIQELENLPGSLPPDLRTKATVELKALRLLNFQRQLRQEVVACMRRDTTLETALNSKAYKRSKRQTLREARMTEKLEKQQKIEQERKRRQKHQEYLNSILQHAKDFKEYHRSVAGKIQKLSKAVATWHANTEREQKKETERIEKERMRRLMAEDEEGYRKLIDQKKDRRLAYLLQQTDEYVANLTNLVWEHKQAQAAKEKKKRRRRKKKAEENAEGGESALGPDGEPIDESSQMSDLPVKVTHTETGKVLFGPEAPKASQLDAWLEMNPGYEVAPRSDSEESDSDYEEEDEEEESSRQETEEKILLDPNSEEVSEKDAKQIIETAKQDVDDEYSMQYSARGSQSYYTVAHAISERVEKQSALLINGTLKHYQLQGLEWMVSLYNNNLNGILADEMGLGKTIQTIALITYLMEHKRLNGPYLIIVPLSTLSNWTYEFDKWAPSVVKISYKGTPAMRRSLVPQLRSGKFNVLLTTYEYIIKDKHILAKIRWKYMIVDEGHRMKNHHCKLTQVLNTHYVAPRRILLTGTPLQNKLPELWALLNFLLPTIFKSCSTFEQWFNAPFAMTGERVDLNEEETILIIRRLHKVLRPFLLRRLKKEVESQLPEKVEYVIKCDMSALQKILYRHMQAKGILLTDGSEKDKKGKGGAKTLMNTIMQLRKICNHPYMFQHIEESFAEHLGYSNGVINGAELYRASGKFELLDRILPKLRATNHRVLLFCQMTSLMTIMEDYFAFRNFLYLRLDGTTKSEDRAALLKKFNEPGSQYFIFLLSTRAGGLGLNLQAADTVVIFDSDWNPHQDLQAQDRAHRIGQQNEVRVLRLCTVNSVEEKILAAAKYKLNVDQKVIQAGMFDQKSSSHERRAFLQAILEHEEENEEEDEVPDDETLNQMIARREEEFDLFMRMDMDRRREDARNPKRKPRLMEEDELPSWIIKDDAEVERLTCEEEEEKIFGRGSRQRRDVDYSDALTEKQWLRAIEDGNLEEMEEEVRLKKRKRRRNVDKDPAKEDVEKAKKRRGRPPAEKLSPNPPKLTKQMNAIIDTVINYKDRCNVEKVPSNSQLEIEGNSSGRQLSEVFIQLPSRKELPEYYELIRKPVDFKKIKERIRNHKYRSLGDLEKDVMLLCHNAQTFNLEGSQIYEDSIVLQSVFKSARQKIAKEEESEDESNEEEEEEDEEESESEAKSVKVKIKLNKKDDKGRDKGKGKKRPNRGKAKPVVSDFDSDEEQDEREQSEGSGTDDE

[13] = target: T6, Fructose-bisphosphate aldolase (Mycobacterium tuberculosis, UniProt P9WQA3); test: Fluorescence-based biochemical high throughput dose response assay for inhibitors of the fructose-bisphosphate aldolase (FBA) of M. tuberculosis.; assay type: functional
T6 sequence (P9WQA3 whole entry): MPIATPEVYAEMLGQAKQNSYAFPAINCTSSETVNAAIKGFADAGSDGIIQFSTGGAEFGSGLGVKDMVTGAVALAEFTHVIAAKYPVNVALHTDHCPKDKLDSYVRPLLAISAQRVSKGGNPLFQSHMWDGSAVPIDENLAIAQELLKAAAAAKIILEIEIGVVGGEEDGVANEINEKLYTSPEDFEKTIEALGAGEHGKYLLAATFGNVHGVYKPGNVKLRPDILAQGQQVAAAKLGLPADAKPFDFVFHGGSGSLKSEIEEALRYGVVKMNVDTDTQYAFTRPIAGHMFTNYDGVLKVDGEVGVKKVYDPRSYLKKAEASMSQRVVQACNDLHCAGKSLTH

[14] = non-specific 3'UTR reporter inhibition in Clone20-Shn3RL – cell-based, Renilla luciferase, cherry-picked, counter-screen for Shn3 inhibitor project, dose response (AID 624133); assay type: functional
[15] = reduction of Shn3 3'UTR-driven luciferase in osteoblasts – cell-based, Clone20 osteoblasts, firefly luciferase, cherry-picked, dose response (AID 624132); assay type: functional;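 note: firefly luciferase luminescence from reporter carrying the Shn3 3'UTR in osteoblasts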
[16] = viability loss in human Jurkat cells – cell-based, luminescence, cytotoxicity control for P. falciparum gametocyte viability project, dose response (AID 1117277); assay type: functional;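 note: potency reflects loss of cellular ATP meaning fewer viable cells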
[17] = viability inhibitors of stage V gametocytes – luminescence, dose response (AID 1117278); assay type: functional, cell-based;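 note: gametocytes exposed to compound for 24 hours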

With `COCCNC(=O)c1ccc(CS(=O)(=O)c2c(Cl)cccc2Cl)o1` the IC50 (Protein Tat) was > 100 µM (active).
For `COC(=O)c1sc(NC(=O)c2ccc(Cn3cc(Cl)cn3)o2)c(C#N)c1C`, the IC50 [1] was > 100 µM (active).
For `N#Cc1ccccc1CN1C(=O)S/C(=C/c2cccn2-c2cccc(C(=O)O)c2)C1=O`, the IC50 [2] was 37 µM (active), the IC50 [3] was 5.19 µM (active) and the IC50 (Protein Tat) was > 100 µM (active). The IC50 [4] was 14.9 µM (active), the IC50 (Large T antigen) was > 100 µM (active) and the EC50 [5] was > 300 µM (not active). For the same molecule, the EC50 [6] was > 300 µM (not active).
With `O=C(O)c1cnc(-c2ccccc2)nc1Sc1ccc(Cl)cc1` the EC50 [7] was > 53 µM (inactive), the IC50 [8] was > 20 µM (inactive) and the IC50 [9] was 16.8 µM (active). For the same molecule, the EC50 [10] was 98.3 µM (inconclusive).
In the case of `CCN(CC)C(=O)CSc1nnc(-c2cccc(OC)c2)o1`, the EC50 [11] is reported as > 91.1 µM (inactive) and the EC50 [12] is reported as > 91.1 µM (inactive).
For `Cc1cc(C)nc(SCc2nc3ncccn3c2Br)n1`, the IC50 [13] was 1.47 µM (active).
For `CS(=O)(=O)c1ccc(C(=O)OCC(=O)N2CCOCC2)cc1[N+](=O)[O-]`, the EC50 [11] was > 91.2 µM (inactive), the AC50 [14] was 27.9 µM (active) and the EC50 [12] was > 91.2 µM (inactive). The AC50 [15] was 17.5 µM (active).
With `C=CCN1C(=O)CSc2ccc(C(=O)NCc3ccco3)cc21` the IC50 [1] was > 100 µM (active).
For `Cc1cccc(OCCN2C(=O)c3ccccc3C2=O)c1`, the IC50 [16] was > 83.2 µM (inactive) and the IC50 [17] was > 109 µM (inactive).
With `Cc1cc(C)n(Cc2ccc(Cl)nc2)n1` the IC50 [16] was > 83.3 µM (inactive) and the IC50 [17] was > 109 µM (inactive).
In the case of `CCCC(c1nnnn1CC(=O)OCC)N(Cc1cc2c(C)cc(C)cc2nc1O)C1CCCC1` (stereo unspecified), the IC50 (cells) is reported as 6.29 µM (active).
